Measured values taken from publication PMC12152147, “DDB1 engagement defines the selectivity of S656 analogs for cyclin K degradation over CDK inhibition” (EMBO Reports, 2025).
Values joined by “and” are separate entries in the source; they are usually repeats but may differ in a detail not shown here. Equal entries are not always repeated.

Assays:
Assay in all cases: Pull-down with immobilized probes and quantitative mass spectrometry
Type in all cases: binding, H. sapiens
[1] = molecular target: T1, OCI-AML5 total protein extracts (cyclin K, CDKs, DDB1) (Homo sapiens, UniProt O75909); conditions: OCI-AML5 total protein extracts; DEP analysis
T1 construct: endogenous in cells; host or cells: OCI-AML5 total protein extract
T1 sequence (O75909 whole entry): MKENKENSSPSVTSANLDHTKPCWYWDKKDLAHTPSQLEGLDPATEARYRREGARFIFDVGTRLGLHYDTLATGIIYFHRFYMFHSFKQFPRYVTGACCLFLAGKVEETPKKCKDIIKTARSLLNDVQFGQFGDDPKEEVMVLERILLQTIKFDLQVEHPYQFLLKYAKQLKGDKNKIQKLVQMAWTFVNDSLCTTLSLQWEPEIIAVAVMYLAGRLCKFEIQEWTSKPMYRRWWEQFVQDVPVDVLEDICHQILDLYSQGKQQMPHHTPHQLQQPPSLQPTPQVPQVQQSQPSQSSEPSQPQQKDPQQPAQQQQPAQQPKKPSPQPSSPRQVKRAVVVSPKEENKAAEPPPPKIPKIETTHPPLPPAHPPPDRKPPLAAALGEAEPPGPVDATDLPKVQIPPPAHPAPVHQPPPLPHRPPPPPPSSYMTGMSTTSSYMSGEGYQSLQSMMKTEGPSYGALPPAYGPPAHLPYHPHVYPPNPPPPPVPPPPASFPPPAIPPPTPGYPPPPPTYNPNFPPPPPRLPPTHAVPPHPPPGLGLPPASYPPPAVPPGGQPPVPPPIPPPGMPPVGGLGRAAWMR
Protocol: (§1) Probe compounds were immobilized through their terminal amine on NHS-sepharose beads as previously described (Médard et al, [2015]). The prepared beads were then washed in PBS and equilibrated in Triton X-100 buffer. For each replicate, 1–2 mg of total proteins (2 mg/ml) were incubated end-over-end with 25 μl of beads overnight at 4 °C in low protein binding microtubes (Sarstedt). The samples were then washed twice in Triton X-100 buffer, transferred to new microtubes and further washed six times in PBS including another microtube transfer at the last wash. Beads pellets were resuspended in 50 mM ammonium bicarbonate and subjected to reduction, alkylation and tryptic digest as described above. Peptides were separated on an home-made reversed-phase column (150-μm i.d. by 200 mm) with a 56-min gradient from 10 to 30% ACN-0.2% FA and a 600-nl/min flow rate on a Easy nLC-1200 connected to a Exploris 480 (ThermoFisher Scientific, San Jose, CA). Each full MS spectrum acquired at a resolution of 120,000 was followed by tandem-MS (MS-MS) spectra acquisition on the most abundant multiply charged precursor ions for 3 s. Tandem-MS experiments were performed using higher energy collision dissociation (HCD) at a collision energy of 34%. The data were processed using PEAKS X Pro (Bioinformatics Solutions, Waterloo, ON) and a Uniprot human database (20366 entries). Mass tolerances on precursor and fragment ions were 10 ppm and 0.01 Da, respectively. Fixed modification was carbamidomethyl (C). Variable selected posttranslational modifications were acetylation (N-ter), oxidation (M), deamidation (NQ), phosphorylation (STY). The data were visualized with Scaffold 5.0 (protein threshold, 99%, with at least 2 peptides identified and a false-discovery rate [FDR] of 1% for peptides).
(§2) Differential Enrichment analysis of Proteomics data (DEP) package (Zhang et al, [2018]) in R was used to analyze the data (excluding proteins identified based on a single peptide), including data filtering, normalization, imputation of missing values and statistical testing of differentially expressed proteins.

[2] = molecular target: T2, OCI-AML5 total protein extracts (cyclin K, CDKs, DDB1) (Homo sapiens, UniProt P06493); conditions: OCI-AML5 total protein extracts; DEP analysis
T2 construct: endogenous in cells; host or cells: OCI-AML5 total protein extract
T2 sequence (P06493 whole entry): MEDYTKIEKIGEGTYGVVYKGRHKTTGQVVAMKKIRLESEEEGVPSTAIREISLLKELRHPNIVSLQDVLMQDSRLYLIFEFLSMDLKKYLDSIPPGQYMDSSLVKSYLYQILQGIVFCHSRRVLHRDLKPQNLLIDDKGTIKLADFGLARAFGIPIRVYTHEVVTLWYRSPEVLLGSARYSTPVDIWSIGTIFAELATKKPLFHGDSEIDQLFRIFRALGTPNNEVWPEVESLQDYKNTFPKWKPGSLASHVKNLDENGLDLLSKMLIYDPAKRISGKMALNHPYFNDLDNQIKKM
Protocol: as §1, §2

[3] = molecular target: T3, OCI-AML5 total protein extracts (cyclin K, CDKs, DDB1) (Homo sapiens, UniProt P21439); conditions: protein ABCB4 (P21439)
T3 construct: endogenous in cells; host or cells: OCI-AML5 total protein extract
T3 sequence (P21439 whole entry): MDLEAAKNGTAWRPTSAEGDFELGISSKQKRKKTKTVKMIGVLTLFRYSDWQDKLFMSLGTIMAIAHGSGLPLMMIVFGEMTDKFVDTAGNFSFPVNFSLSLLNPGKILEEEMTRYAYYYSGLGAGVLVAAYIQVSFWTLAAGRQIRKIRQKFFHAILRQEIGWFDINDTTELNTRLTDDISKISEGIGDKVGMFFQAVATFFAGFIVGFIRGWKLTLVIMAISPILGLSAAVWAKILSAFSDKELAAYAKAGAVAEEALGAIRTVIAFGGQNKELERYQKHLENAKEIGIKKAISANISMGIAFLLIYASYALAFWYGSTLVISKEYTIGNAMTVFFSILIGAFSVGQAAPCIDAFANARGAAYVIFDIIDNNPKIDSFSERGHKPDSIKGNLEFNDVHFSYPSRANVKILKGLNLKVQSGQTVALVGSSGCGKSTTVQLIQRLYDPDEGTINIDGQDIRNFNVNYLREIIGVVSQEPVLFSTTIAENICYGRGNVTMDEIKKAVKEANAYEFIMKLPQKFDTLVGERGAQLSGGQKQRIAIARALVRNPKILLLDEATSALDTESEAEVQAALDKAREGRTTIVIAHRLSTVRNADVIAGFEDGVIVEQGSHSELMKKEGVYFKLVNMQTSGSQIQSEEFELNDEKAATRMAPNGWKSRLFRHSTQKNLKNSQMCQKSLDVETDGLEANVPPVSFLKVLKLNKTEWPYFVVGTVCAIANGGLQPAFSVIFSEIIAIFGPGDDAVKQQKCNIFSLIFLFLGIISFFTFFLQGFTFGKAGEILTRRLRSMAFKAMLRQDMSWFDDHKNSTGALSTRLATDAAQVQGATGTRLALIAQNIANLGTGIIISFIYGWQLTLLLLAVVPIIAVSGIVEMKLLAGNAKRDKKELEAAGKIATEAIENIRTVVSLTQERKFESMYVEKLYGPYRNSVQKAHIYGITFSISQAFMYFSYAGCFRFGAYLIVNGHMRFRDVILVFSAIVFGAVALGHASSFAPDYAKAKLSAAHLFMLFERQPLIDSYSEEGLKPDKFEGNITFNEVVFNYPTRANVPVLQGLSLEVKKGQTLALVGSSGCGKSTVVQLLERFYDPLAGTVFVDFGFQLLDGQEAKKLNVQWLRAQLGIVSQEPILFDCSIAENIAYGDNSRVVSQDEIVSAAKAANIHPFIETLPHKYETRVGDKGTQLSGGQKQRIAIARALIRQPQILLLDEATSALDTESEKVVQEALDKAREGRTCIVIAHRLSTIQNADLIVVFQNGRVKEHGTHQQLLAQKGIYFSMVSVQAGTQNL
Protocol: as §1, §2

[4] = molecular target: T4, OCI-AML5 total protein extracts (cyclin K, CDKs, DDB1) (Homo sapiens, UniProt P45844); conditions: protein ABCG1 (P45844)
T4 construct: endogenous in cells; host or cells: OCI-AML5 total protein extract
Protocol: as §1, §2

[5] = molecular target: T5, OCI-AML5 total protein extracts (cyclin K, CDKs, DDB1) (Homo sapiens, UniProt P50750); conditions: OCI-AML5 total protein extracts; DEP analysis
T5 construct: endogenous in cells; host or cells: OCI-AML5 total protein extract
T5 sequence (P50750 whole entry): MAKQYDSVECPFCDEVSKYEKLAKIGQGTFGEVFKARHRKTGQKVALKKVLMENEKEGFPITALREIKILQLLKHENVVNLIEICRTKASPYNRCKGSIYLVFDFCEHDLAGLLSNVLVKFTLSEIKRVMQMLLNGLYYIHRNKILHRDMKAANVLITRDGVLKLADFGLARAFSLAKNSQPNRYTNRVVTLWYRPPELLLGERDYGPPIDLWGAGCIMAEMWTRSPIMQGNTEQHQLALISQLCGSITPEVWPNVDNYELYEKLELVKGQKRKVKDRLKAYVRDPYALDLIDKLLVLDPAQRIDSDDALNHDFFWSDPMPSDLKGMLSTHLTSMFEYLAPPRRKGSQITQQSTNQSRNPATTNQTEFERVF
Protocol: as §1, §2

[6] = molecular target: T6, OCI-AML5 total protein extracts (cyclin K, CDKs, DDB1) (Homo sapiens, UniProt Q16531); conditions: OCI-AML5 total protein extracts
T6 construct: endogenous in cells; host or cells: OCI-AML5 total protein extract
Protocol: as §1, §2

[7] = molecular target: T7, OCI-AML5 total protein extracts (cyclin K, CDKs, DDB1) (Homo sapiens, UniProt Q6UXT9); conditions: protein ABHD15 (Q6UXT9)
T7 construct: endogenous in cells; host or cells: OCI-AML5 total protein extract
T7 sequence (Q6UXT9 24-468): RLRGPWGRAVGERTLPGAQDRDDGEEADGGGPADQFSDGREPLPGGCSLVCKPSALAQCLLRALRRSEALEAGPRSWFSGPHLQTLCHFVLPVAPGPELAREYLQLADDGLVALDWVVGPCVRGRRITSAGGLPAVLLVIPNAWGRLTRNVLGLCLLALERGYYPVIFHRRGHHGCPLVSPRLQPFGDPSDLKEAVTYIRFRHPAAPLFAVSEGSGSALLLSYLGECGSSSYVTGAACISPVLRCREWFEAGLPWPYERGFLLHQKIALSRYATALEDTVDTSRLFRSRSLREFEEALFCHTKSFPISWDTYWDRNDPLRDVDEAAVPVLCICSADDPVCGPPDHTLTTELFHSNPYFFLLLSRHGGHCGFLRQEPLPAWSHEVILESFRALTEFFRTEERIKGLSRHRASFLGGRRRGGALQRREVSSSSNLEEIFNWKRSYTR
Protocol: as §1, §2

[8] = molecular target: T8, OCI-AML5 total protein extracts (cyclin K, CDKs, DDB1) (Homo sapiens, UniProt Q86UQ4); conditions: protein ABCA13 (Q86UQ4)
T8 construct: endogenous in cells; host or cells: OCI-AML5 total protein extract
Protocol: as §1, §2

[9] = molecular target: T9, OCI-AML5 total protein extracts (cyclin K, CDKs, DDB1) (Homo sapiens, UniProt Q96IU4); conditions: protein ABHD14B (Q96IU4)
T9 construct: endogenous in cells; host or cells: OCI-AML5 total protein extract
T9 sequence (Q96IU4 1-210): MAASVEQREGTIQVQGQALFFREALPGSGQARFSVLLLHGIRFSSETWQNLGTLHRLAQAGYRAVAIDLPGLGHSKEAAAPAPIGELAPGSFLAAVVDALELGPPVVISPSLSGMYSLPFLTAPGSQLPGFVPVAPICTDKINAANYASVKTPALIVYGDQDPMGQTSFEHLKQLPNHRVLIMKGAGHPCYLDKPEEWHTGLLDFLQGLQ
Protocol: as §1, §2

[10] = molecular target: T10, OCI-AML5 total protein extracts (cyclin K, CDKs, DDB1) (Homo sapiens, UniProt Q9NYV4); conditions: OCI-AML5 total protein extracts; DEP analysis
T10 construct: endogenous in cells; host or cells: OCI-AML5 total protein extract
T10 sequence (Q9NYV4 whole entry): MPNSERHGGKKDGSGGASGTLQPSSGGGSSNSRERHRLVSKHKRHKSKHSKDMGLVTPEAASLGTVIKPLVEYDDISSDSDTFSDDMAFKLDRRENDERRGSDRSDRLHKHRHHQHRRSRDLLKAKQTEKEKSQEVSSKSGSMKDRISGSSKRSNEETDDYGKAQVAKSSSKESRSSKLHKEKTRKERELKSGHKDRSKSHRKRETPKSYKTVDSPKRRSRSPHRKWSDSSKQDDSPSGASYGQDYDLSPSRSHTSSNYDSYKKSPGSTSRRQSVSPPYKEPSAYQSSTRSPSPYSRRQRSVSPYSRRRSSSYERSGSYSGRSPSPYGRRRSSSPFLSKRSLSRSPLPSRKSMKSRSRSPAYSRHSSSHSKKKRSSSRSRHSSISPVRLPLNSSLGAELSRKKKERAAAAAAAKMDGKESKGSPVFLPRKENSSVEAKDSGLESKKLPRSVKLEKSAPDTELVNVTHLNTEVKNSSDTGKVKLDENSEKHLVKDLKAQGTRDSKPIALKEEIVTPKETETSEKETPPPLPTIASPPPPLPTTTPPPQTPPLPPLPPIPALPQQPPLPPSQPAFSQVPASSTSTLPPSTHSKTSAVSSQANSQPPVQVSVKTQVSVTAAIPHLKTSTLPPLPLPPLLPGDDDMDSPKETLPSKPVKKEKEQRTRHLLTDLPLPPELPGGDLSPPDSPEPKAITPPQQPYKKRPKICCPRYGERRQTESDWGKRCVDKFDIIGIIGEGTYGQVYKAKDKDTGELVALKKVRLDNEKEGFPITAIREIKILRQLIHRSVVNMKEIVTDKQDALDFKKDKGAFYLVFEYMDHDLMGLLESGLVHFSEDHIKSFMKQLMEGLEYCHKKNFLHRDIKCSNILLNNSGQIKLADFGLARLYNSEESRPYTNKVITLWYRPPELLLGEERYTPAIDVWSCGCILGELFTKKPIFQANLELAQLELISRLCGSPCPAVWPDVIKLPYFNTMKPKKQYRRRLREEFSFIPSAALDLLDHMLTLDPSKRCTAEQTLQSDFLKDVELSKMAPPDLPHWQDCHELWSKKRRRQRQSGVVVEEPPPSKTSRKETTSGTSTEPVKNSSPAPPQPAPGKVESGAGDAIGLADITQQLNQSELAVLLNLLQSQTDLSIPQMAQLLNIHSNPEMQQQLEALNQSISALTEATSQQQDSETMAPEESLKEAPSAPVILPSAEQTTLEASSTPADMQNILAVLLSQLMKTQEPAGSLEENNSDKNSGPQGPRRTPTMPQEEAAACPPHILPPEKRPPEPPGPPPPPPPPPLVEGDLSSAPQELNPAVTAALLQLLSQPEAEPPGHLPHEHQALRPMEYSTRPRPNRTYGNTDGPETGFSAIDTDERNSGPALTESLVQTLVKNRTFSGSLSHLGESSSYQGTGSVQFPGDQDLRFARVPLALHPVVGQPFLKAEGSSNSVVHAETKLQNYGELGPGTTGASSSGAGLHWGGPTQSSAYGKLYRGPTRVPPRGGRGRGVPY
Protocol: as §1, §2

[11] = centered abundance, competition (compe)
[12] = probe vs probe with competition
[13] = probe with competition (compe) vs UOM-005839
[14] = probe with competition (compe) vs beads

## CN(CCOCCOCCN)c1ccc(CC(=O)Nc2ncc(SCc3cccnc3)s2)cc1 [UOM-005790]
[1]
  pull-down enrichment of Cyclin K: 2.779 and 2.982 and 2.894
[2]
  pull-down enrichment of CDK1: 2.811 and 2.814 and 2.979
[3]; centered abundance
  UOM-005790_centered: -2.58
[3]; [11]
  UOM-005790compe_centered: -1.22
[3]; immobilized probe vs beads
  UOM-005790_vs_Beads_ratio: -5.48
[3]; probe vs probe UOM-005839
  UOM-005790_vs_UOM-005839_ratio: -3.49
[3]; [12]
  UOM-005790_vs_UOM-005790compe_ratio: -1.36
[3]; [13]
  UOM-005790compe_vs_UOM-005839_ratio: -2.12
[3]; [14]
  UOM-005790compe_vs_Beads_ratio: -4.12
[4]; centered abundance
  UOM-005790_centered: 2.21
[4]; [11]
  UOM-005790compe_centered: 1.7
[4]; immobilized probe vs beads
  UOM-005790_vs_Beads_ratio: 4.82
[4]; probe vs probe UOM-005839
  UOM-005790_vs_UOM-005839_ratio: 3.51
[4]; [12]
  UOM-005790_vs_UOM-005790compe_ratio: 0.512
[4]; [13]
  UOM-005790compe_vs_UOM-005839_ratio: 3
[4]; [14]
  UOM-005790compe_vs_Beads_ratio: 4.31
[5]
  pull-down enrichment of CDK9: 2.785 and 2.837 and 2.887
[6]
  pull-down enrichment of DDB1: not enriched
[7]; centered abundance
  UOM-005790_centered: 1.53
[7]; [11]
  UOM-005790compe_centered: 1.26
[7]; immobilized probe vs beads
  UOM-005790_vs_Beads_ratio: 5.2
[7]; probe vs probe UOM-005839
  UOM-005790_vs_UOM-005839_ratio: 0.645
[7]; [12]
  UOM-005790_vs_UOM-005790compe_ratio: 0.275
[7]; [13]
  UOM-005790compe_vs_UOM-005839_ratio: 0.37
[7]; [14]
  UOM-005790compe_vs_Beads_ratio: 4.93
[8]; centered abundance
  UOM-005790_centered: 0.56
[8]; [11]
  UOM-005790compe_centered: -0.869
[8]; immobilized probe vs beads
  UOM-005790_vs_Beads_ratio: 0.378
[8]; probe vs probe UOM-005839
  UOM-005790_vs_UOM-005839_ratio: 0.434
[8]; [12]
  UOM-005790_vs_UOM-005790compe_ratio: 1.43
[8]; [13]
  UOM-005790compe_vs_UOM-005839_ratio: -0.995
[8]; [14]
  UOM-005790compe_vs_Beads_ratio: -1.05
[9]; centered abundance
  UOM-005790_centered: 1.19
[9]; [11]
  UOM-005790compe_centered: 1.42
[9]; immobilized probe vs beads
  UOM-005790_vs_Beads_ratio: 4.31
[9]; probe vs probe UOM-005839
  UOM-005790_vs_UOM-005839_ratio: 0.69
[9]; [12]
  UOM-005790_vs_UOM-005790compe_ratio: -0.227
[9]; [13]
  UOM-005790compe_vs_UOM-005839_ratio: 0.916
[9]; [14]
  UOM-005790compe_vs_Beads_ratio: 4.54
[10]
  pull-down enrichment of CDK12: 0.5953 and 0.6765 and 0.5336
